Measured values reported in US20130296311A1, “INHIBITORS OF HCV NS5A” (PRESIDIO PHARMACEUTICALS, INC., priority 2010, published 2013).

Each compound was assayed on HCV 1b_Huh-Luc/Neo-ET cell line persistently expressing a bicistronic genotype 1b replicon in Huh 7 cells (assay: HCV replicon assay (luciferase readout, 72 h)). Conditions: Hepatitis C virus, Huh-7, 72 h, read-out: Inhibition of HCV genotype 1b.
Format: cell-based, HCV genotype 1b
Outline: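 Huh 7 cells carrying a bicistronic genotype 1b luciferase/neo replicon received compound in triplicate the day after plating. After 72 h, replicon levels were read as Bright-Glo luciferase activity, expressed as % of control; EC50 was fitted with a four-parameter logistic and determined several times.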
In the case of COC(=O)N[C@H](C(=O)N1CCC[C@H]1c1ncc(-c2ccc(C#Cc3ccc4c(c3)CCCc3nc([C@@H]5CCCN5C(=O)[C@@H](NC(=O)OC)C(C)C)[nH]c3-4)cc2)[nH]1)C(C)C [Compound 1096], the EC50 is reported as under 1 nM. COC(=O)N[C@H](C(=O)N1CCC[C@H]1c1nc2ccc(C#Cc3ccc(-c4ccc5nc([C@@H]6CCCN6C(=O)[C@@H](NC(=O)OC)C(C)C)[nH]c5c4)nc3)cc2[nH]1)C(C)C [compound 1083] gave an EC50 of under 1 nM. Compound COC(=O)N[C@@H](C(=O)N1CCC[C@H]1c1ncc(-c2ccc(C#Cc3ccc(-c4cnc([C@@H]5CCCN5C(=O)[C@H](NC(=O)N5CC[C@@H](OC)C5)c5ccccc5)[nH]4)cc3)cc2)[nH]1)c1ccccc1 [Compound 271] has an EC50 of under 1 nM. CC(C)[C@@H](NC(=O)OC(C)(C)C)C(=O)N1CCC[C@H]1c1ncc(C#Cc2ccc(C#Cc3cnc([C@@H]4CCCN4C(=O)[C@H](NC(=O)OC(C)(C)C)C(C)C)[nH]3)cc2)[nH]1 [Compound 301] gave an EC50 of over 1000 nM. COC(=O)N[C@H](C(=O)N1CCCC[C@H]1c1ncc(-c2ccc(C#Cc3ccc4nc([C@@H]5CCCN5C(=O)[C@@H](NC(=O)OC)C(C)C)[nH]c4c3)cc2)[nH]1)C(C)C [Compound 1032] gave an EC50 of under 1 nM. In the case of COC(=O)N[C@H](C(=O)N1CCC[C@H]1c1ncc(-c2ccc(C#Cc3ccc4c(ccc5nc([C@@H]6CCCN6C(=O)[C@@H](NC(=O)OC)C(C)C)[nH]c54)c3)cc2)[nH]1)C(C)C [Compound 1095], the EC50 is reported as under 1 nM. With CC(C)(C)OC(=O)N[C@@H](C(=O)N1CCC[C@H]1C(=O)NCCc1ccc(C#Cc2cnc([C@@H]3CCCN3C(=O)[C@H](NC(=O)OC(C)(C)C)c3ccccc3)[nH]2)cc1)c1ccccc1 [Compound 124] the EC50 was under 1 nM. For C[C@@H](NC(=O)[C@@H]1CCCN1C(=O)[C@H](NC(=O)C1CC1)c1ccccc1)c1ccc(C#Cc2cnc([C@@H]3CCCN3C(=O)[C@H](NC(=O)C3CC3)c3ccccc3)[nH]2)cc1 [Compound 135], the EC50 was over 1000 nM. In the case of O=C(N[C@@H](C(=O)N1CCC[C@H]1c1cc(-c2ccc(C#Cc3ccc(-c4cnc([C@@H]5CCCN5C(=O)[C@H](NC(=O)N5CCOCC5)c5ccccc5)[nH]4)cc3)cc2)n[nH]1)c1ccccc1)N1CCOCC1 [Compound 220], the EC50 is reported as under 1 nM. COC(=O)N[C@@H](C(=O)N1CCC[C@H]1c1cc(-c2ccc(C#Cc3ccc(-c4cnc([C@@H]5CCCN5C(=O)[C@H](NC(=O)OC)c5ccccc5)[nH]4)cc3)cc2)n[nH]1)c1ccccc1 [Compound 219] was tested, and the EC50 was under 1 nM. COC(=O)N[C@@H](C(=O)N1CCC[C@H]1c1ncc(-c2ccc(C#Cc3ccc(-c4cnc([C@@H]5CCCN5C(=O)[C@H](NC(=O)OC)[C@H](C)OC)[nH]4)cc3)cc2)[nH]1)[C@H](C)OC [Compound 977] showed an EC50 of 10 to 999 nM. COC(=O)N[C@@H](C(=O)N1CCC[C@H]1c1ncc(-c2ccc(C#Cc3ccc(-c4cnc([C@@H]5CCCN5C(=O)[C@H](NC(=O)N5CCC[C@@H]5C)c5ccccc5)[nH]4)cc3)cc2)[nH]1)c1ccccc1 [Compound 261] showed an EC50 of under 1 nM. COC(=O)N[C@H](C(=O)N1CCC[C@H]1c1ncc(-c2ccc(C#Cc3ccc4nc([C@@H]5CCCN5C(=O)[C@@H](NC(=O)OC)C(C)C)[nH]c4c3)nc2)[nH]1)C(C)C [Compound 1033] was tested, and the EC50 was under 1 nM. COC(=O)N[C@H](C(=O)N1CCC[C@H]1c1nc2ccc(C#Cc3ccc(-c4cnc([C@@H]5CCCN5C(=O)[C@H](NC(=O)OC)C(C)C)[nH]4)cc3)cc2[nH]1)C(C)C [Compound 1053] showed an EC50 of under 1 nM. With C[C@H](NC(=O)[C@@H]1CCCN1C(=O)[C@H](NC(=O)OC(C)(C)C)c1ccccc1)c1ccc(C#Cc2cnc([C@@H]3CCCN3C(=O)[C@H](NC(=O)OC(C)(C)C)c3ccccc3)[nH]2)cc1 [Compound 130] the EC50 was 10 to 999 nM. For CC(C)[C@H](NC(=O)N1CCN(C)CC1)C(=O)N1CCC[C@H]1c1ncc(-c2ccc(C#Cc3ccc(-c4cnc([C@@H]5CCCN5C(=O)[C@@H](NC(=O)N5CCN(C)CC5)C(C)C)[nH]4)cc3)cc2)[nH]1 [Compound 287], the EC50 was over 1000 nM. CN(C)[C@@H](C(=O)N1CCC[C@H]1c1ncc(C#Cc2ccc(-c3cnc([C@@H]4CCCN4C(=O)[C@H](NC(=O)C4CC4)c4ccccc4)[nH]3)cc2)[nH]1)c1ccccc1 [Compound 133] was tested, and the EC50 was under 1 nM. COC(=O)N[C@@H](C(=O)N1CCC[C@H]1c1ncc(-c2ccc(C#Cc3ccc(-c4cnc([C@@H]5CCCN5C(=O)[C@H]5CCCO5)[nH]4)cc3)cc2)[nH]1)c1ccccc1 [Compound 177] gave an EC50 of under 1 nM. Work on CC1(O)CCN(C(=O)N[C@@H](C(=O)N2CCC[C@H]2c2nc(-c3ccc4cc(C#Cc5cnc([C@@H]6CCCN6C(=O)[C@H](NC(=O)N6CCC(C)(O)CC6)c6ccccc6)[nH]5)ccc4c3)c[nH]2)c2ccccc2)CC1 [Compound 805] yielded an EC50 of under 1 nM. COC(=O)N[C@@H](C(=O)N1CCC[C@H]1c1ncc(-c2ccc(C#Cc3ccc(-c4cnc([C@@H]5CCCN5C(=O)[C@H](NC(=O)C5CCCN5C)c5ccccc5)[nH]4)cc3)cc2)[nH]1)c1ccccc1 (some centres unmarked) [Compound 203] was tested, and the EC50 was under 1 nM. O=C([C@@H](c1ccccc1)N1CCCC1)N1CCC[C@H]1c1ncc(-c2ccc(C#Cc3ccc(-c4cnc([C@@H]5CCCN5C(=O)[C@@H](c5ccccc5)N5CCCC5)[nH]4)cc3)cc2)[nH]1 [Compound 194] showed an EC50 of under 1 nM. Work on COC(=O)NC(C(=O)N[C@@H](C)c1ncc(-c2ccc(C#Cc3ccc(-c4cnc([C@@H]5CCCN5C(=O)[C@H](NC(=O)OC)c5ccccc5)[nH]4)cc3)cc2)[nH]1)c1ccccc1 (some centres unmarked) [Compound 279] yielded an EC50 of under 1 nM. CN(C)[C@@H](C(=O)N1CCC[C@H]1c1ncc(-c2ccc(C#Cc3ccc(-c4cnc([C@@H]5CCCN5C(=O)[C@H](NS(C)(=O)=O)c5ccccc5)[nH]4)cc3)cc2)[nH]1)c1ccccc1 [Compound 228] was tested, and the EC50 was under 1 nM. With COC(=O)N[C@H](C(=O)N[C@@H](C)c1ncc(-c2ccc(C#Cc3ccc(-c4cnc([C@@H]5CCCN5C(=O)[C@@H](NC(=O)OC)C(C)C)[nH]4)cc3)cc2)[nH]1)C(C)C [Compound 275] the EC50 was under 1 nM. Compound COC(=O)N[C@H](C(=O)N1CCC[C@H]1c1ncc(-c2ccc(C#Cc3ccc(-c4cnc([C@@H]5CCCN5C(=O)[C@@H](c5ccccc5)N5CCOCC5)[nH]4)cc3)cc2)[nH]1)C(C)C [Compound 987] has an EC50 of under 1 nM. For COC(=O)N[C@H](C(=O)N1CCC[C@H]1c1ncc(-c2ccc(C#Cc3ccc(-c4cnc([C@@H]5CCCN5C(=O)[C@@H](NC5CCOCC5)C(C)C)[nH]4)cc3)cc2)[nH]1)C(C)C [Compound 1001], the EC50 was 1 to 9.9 nM. Compound COC(=O)N[C@@H](C(=O)N1CCC[C@H]1c1ncc(-c2ccc(C#Cc3ccc(-c4cnc([C@@H]5CCCN5C(=O)[C@H](NC(=O)N5CCCC5)c5ccccc5)[nH]4)cc3)cc2)[nH]1)c1ccccc1 [Compound 243] has an EC50 of under 1 nM. COC(=O)N[C@@H](C(=O)N1CCC[C@H]1c1ncc(-c2ccc(C#Cc3ccc(-c4cnc([C@@H]5CCCN5C(=O)[C@H](NC(=O)N5CCC(O)CC5)c5ccccc5)[nH]4)cc3)cc2)[nH]1)c1ccccc1 [Compound 241] showed an EC50 of under 1 nM. Compound COC(=O)N[C@H](C(=O)N1CCC[C@H]1c1nc2ccc3cc(C#Cc4ccc(-c5cnc([C@@H]6CCCN6C(=O)[C@H](NC(=O)OC)c6ccccc6)[nH]5)cc4)ccc3c2[nH]1)C(C)C [Compound 1093] has an EC50 of under 1 nM. For COC(=O)NC(C(=O)N1CCC[C@H]1c1ncc(-c2ccc(C#Cc3ccc(-c4cnc([C@@H]5CCCN5C(=O)[C@H](NC(=O)OC)[C@H](C)O)[nH]4)cc3)cc2)[nH]1)[C@H](C)O (some centres unmarked) [Compound 978], the EC50 was 10 to 999 nM. C[C@@H](NC(=O)OC(C)(C)C)C(=O)N1CCC[C@H]1c1ncc(C#Cc2ccc(-c3cnc([C@@H]4CCCN4C(=O)[C@@H](C)NC(=O)OC(C)(C)C)[nH]3)cc2)[nH]1 [Compound 104] gave an EC50 of 1 to 9.9 nM. With C[C@H]1OC(=O)N[C@@H]1C(=O)N1CCC[C@H]1c1ncc(-c2ccc(C#Cc3ccc(-c4cnc([C@@H]5CCCN5C(=O)[C@H]5NC(=O)O[C@@H]5C)[nH]4)cc3)cc2)[nH]1 [Compound 979] the EC50 was 10 to 999 nM. COC(=O)N[C@@H](CC(=O)N1CCC[C@H]1c1ncc(-c2ccc(C#Cc3ccc4nc([C@@H]5CCCN5C(=O)C[C@H](NC(=O)OC)C(C)C)[nH]c4c3)cc2)[nH]1)C(C)C [Compound 1064] gave an EC50 of 10 to 999 nM. COC(=O)N[C@H](C(=O)N1CCC[C@H]1c1ncc(-c2ccc(C#Cc3ccc(-c4cnc([C@@H]5CCCN5C(=O)[C@@H](c5ccccc5)N5CCOC5=O)[nH]4)cc3)cc2)[nH]1)C(C)C [Compound 1007] gave an EC50 of under 1 nM.

Same assay, conditions: Hepatitis C virus, Huh-7, read-out: Inhibition of HCV genotype 1b
Compound COC(=O)N[C@H](C(=O)N1CCC[C@H]1c1ncc(-c2ccc3cc(C#Cc4[nH]c([C@@H]5CCCN5C(=O)[C@@H](NC(=O)OC)[C@@H](C)OC)nc4C(F)(F)F)ccc3c2)[nH]1)[C@@H](C)OC [Compound 1255] has an EC50 of under 1 nM. Work on C=CC[C@H](NC(=O)OC)C(=O)N1CCC[C@H]1c1nc2ccc(C#Cc3ccc4c(ccc5nc([C@@H]6CCCN6C(=O)[C@@H](NC(=O)OC)C(C)C)[nH]c54)c3)cc2[nH]1 [Compound 1277] yielded an EC50 of under 1 nM. With COC(=O)N[C@H](C(=O)N1CCC[C@H]1c1nc(C(F)(F)F)c(C#Cc2ccc3cc(-c4cnc([C@@H]5CCCN5C(=O)[C@@H](NC(=O)OC)[C@@H](C)OC)[nH]4)ccc3c2)[nH]1)C(C)C [Compound 1261] the EC50 was under 1 nM. COC(=O)N[C@H](C(=O)N1CCC[C@H]1c1ncc(-c2ccc(C#Cc3ccc(-c4cnc([C@@H]5CCCN5C(=O)[C@H](NC(=O)OC)c5ccccc5OC)[nH]4)cc3)cc2)[nH]1)[C@@H](C)OC [Compound 1211] gave an EC50 of under 1 nM. COC(=O)N[C@H](C(=O)N1CCC[C@H]1c1ncc(-c2ccc(C#Cc3ccc4nc([C@@H]5CCCN5C(=O)[C@@H](NC(=O)OC)[C@@H](C)OC)[nH]c4c3)cc2)[nH]1)C(C)C [Compound 1242] gave an EC50 of under 1 nM. COC(=O)N[C@H](C(=O)N1CCC[C@H]1c1nc2c([nH]1)-c1ccc(C#Cc3ccc4nc([C@@H]5CCCN5C(=O)[C@@H](NC(=O)OC)C5CCOCC5)[nH]c4c3)cc1CCC2)C(C)C [Compound 1280] was tested, and the EC50 was under 1 nM. COC(=O)N[C@H](C(=O)N1CCC[C@H]1c1ncc(-c2ccc(C#Cc3ccc(-c4cnc([C@@H]5CCCN5C(=O)[C@@H](NC(=O)OC)C5CCOCC5)[nH]4)cc3)cc2)[nH]1)C1CCOCC1 [Compound 1218] was tested, and the EC50 was under 1 nM.
